Here are results for 15 molecules from ChEMBL document CHEMBL5291721, “A preclinical secondary pharmacology resource illuminates target-adverse drug reaction associations of marketed drugs” (Nat Commun, 2023).

Test [1] deals with 5-hydroxytryptamine receptor 2A (Homo sapiens, UniProt P28223).
The next test addresses T1, Progesterone receptor (Homo sapiens, UniProt P06401).
T1 sequence (P06401 whole entry): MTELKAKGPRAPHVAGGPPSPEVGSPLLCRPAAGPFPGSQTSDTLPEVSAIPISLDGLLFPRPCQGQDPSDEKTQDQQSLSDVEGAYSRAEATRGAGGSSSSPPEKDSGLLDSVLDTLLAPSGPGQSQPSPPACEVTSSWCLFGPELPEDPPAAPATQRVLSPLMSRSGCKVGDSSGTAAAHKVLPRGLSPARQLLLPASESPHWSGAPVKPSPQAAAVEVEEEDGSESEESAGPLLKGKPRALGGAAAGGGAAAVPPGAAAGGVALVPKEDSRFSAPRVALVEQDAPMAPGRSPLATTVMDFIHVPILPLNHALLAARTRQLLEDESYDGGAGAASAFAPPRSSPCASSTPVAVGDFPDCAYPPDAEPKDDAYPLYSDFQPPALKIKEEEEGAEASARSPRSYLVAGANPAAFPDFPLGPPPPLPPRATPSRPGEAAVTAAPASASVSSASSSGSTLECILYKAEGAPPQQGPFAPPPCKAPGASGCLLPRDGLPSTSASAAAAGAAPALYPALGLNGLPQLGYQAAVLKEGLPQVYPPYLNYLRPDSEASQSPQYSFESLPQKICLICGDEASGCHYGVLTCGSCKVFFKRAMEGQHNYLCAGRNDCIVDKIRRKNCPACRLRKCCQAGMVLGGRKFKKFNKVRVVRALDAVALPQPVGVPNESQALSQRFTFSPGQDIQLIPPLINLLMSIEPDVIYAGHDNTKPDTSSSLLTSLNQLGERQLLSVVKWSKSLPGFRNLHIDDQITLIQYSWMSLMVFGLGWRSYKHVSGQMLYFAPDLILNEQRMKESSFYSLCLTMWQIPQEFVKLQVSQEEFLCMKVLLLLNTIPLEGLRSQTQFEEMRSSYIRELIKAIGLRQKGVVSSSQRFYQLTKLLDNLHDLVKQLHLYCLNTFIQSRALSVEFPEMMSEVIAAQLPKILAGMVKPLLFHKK

In test [2] the target is T2, Neuropeptide Y receptor type 2 (Homo sapiens, UniProt P49146).
T2 sequence (P49146 whole entry): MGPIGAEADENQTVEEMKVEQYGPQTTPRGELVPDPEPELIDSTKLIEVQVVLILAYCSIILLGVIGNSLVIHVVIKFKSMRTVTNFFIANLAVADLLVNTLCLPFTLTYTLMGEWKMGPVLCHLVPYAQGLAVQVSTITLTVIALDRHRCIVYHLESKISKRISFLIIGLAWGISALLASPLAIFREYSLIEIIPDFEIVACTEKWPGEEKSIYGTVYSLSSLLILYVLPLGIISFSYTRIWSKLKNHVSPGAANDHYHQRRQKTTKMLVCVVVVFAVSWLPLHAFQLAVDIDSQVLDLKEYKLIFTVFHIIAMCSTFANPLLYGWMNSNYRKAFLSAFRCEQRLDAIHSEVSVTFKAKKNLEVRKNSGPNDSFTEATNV

Test [3] addresses T3, Corticotropin-releasing factor receptor 2 (Homo sapiens, UniProt Q13324).
T3 sequence (Q13324 whole entry): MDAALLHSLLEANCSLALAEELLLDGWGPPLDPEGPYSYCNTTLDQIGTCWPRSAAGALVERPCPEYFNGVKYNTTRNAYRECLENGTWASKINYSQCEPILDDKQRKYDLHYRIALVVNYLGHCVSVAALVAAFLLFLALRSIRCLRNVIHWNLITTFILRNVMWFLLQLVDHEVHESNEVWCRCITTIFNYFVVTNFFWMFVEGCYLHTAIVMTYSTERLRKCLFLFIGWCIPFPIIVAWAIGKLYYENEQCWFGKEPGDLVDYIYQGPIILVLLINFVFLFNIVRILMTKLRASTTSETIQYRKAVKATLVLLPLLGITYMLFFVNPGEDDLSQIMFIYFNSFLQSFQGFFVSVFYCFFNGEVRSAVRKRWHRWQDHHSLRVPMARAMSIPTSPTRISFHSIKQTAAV

Test [4] concerns the target T4, Alpha-2A adrenergic receptor (Homo sapiens, UniProt P08913).
T4 sequence (P08913 whole entry): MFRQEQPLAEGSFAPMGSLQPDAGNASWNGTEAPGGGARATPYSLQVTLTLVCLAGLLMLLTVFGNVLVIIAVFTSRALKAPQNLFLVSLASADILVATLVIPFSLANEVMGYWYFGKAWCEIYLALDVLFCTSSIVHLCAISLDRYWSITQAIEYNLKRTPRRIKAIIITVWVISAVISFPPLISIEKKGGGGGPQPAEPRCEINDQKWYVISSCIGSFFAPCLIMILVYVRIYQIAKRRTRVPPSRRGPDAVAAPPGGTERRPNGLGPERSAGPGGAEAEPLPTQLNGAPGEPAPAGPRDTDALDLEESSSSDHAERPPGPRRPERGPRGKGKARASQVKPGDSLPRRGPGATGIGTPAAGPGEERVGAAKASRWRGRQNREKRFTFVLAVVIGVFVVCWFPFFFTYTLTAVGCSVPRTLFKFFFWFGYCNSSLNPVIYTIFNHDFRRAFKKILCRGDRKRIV

Another test deals with Histamine H2 receptor (Homo sapiens, UniProt P25021).
Test [5] concerns the target T5, 5-hydroxytryptamine receptor 1A (Homo sapiens, UniProt P08908).
T5 sequence (P08908 whole entry): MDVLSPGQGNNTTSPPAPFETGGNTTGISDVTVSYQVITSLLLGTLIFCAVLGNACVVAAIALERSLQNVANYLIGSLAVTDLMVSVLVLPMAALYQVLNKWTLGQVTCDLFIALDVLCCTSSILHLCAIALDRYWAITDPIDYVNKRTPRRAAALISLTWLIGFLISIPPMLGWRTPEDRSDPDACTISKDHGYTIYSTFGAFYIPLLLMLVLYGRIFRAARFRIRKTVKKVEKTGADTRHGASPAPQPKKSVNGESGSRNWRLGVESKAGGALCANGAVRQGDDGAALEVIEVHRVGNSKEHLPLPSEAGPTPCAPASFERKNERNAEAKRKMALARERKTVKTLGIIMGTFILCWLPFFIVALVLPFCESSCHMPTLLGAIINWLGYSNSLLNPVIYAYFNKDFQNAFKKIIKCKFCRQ

Each structure is given as a SMILES string. Some results are limits rather than exact numbers.
Further: assay procedure not described here.

Histamine H2 receptor, sequence (P25021 whole entry): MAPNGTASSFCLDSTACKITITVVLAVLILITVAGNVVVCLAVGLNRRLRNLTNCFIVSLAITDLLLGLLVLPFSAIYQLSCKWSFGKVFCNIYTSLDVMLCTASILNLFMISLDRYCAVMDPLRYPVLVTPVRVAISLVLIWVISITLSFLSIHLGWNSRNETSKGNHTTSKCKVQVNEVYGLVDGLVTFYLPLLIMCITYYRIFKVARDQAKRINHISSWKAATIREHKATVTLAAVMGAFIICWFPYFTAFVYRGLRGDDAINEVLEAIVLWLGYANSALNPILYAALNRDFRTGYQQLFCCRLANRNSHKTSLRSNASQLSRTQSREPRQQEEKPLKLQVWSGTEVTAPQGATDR
5-hydroxytryptamine receptor 2A, sequence (P28223 whole entry): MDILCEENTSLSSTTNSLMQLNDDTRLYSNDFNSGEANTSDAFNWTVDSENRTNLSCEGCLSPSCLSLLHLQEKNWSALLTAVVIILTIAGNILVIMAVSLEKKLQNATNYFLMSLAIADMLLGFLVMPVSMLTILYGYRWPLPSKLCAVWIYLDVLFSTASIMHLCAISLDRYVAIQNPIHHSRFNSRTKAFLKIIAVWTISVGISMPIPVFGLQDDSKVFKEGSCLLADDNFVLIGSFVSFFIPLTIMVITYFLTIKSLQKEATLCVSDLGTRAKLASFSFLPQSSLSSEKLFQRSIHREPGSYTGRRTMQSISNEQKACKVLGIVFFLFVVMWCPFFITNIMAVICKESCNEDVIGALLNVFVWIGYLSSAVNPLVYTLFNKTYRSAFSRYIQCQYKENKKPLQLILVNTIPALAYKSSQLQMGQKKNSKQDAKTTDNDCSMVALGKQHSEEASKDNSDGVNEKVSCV

A word on the AC50: it is the midpoint of the concentration-response curve, whichever way the signal moves. A high value points to activity only at high concentration. With `CN1CC(=O)N2[C@H](c3ccc4c(c3)OCO4)c3[nH]c4ccccc4c3C[C@@H]2C1=O`, the results for the concentration at half-maximal activity (AC50) (in test [1]; at Progesterone receptor) were greater than 10 µM and greater than 30 µM, respectively.
As for `CN1CCc2cccc3c2[C@H]1Cc1ccc(O)c(O)c1-3` [APOMORPHINE], the AC50 in test [1] is 0.964 µM; in test [2], greater than 30 µM; in test [3], greater than 30 µM; in test [4] it was 2.37 µM; on Histamine H2 receptor, greater than 10 µM; at Progesterone receptor, 26 µM.
Take `NC(CO)C(=O)NNCc1ccc(O)c(O)c1O` (stereo not drawn) [BENSERAZIDE]: the AC50 is greater than 10 µM in test [1]; greater than 30 µM in test [2]; greater than 30 µM in test [3]; greater than 10 µM in test [4]; greater than 10 µM at Histamine H2 receptor; greater than 10 µM in test [5]. In addition, the AC50 at Progesterone receptor was greater than 30 µM.
`CN(C)C(=O)OC1N=C(c2ccccc2)c2cc(Cl)ccc2N(C)C1=O` (stereo not drawn) [CAMAZEPAM]: the AC50 in test [1] is greater than 10 µM; in test [2], greater than 30 µM; in test [3], greater than 30 µM; in test [4], greater than 10 µM; at Histamine H2 receptor it was greater than 10 µM; in test [5] it was greater than 10 µM. The same molecule registered an AC50 at Progesterone receptor greater than 30 µM.
`CCOc1cc(N)c([N+](=O)[O-])cc1C(=O)NC1CCN(CC2CC=CCC2)CC1` (stereo not drawn) [CINITAPRIDE]: the AC50 in test [1] turned out to be 0.009 µM.
The same measure, in the same setting: as for `CCCCCCCCCCCC[N+](C)(C)CCOc1ccccc1` [DOMIPHEN], the figure is 0.14 µM; as for `C#CC1(OC(N)=O)CCCCC1` [ETHINAMATE], greater than 10 µM.
For the molecule `CCCCCN(C)CCC(O)(P(=O)(O)O)P(=O)(O)O` [IBANDRONIC ACID], the concentration at half-maximal activity (AC50) is greater than 10 µM in test [1]; greater than 30 µM in test [2]; greater than 30 µM in test [3]; greater than 10 µM in test [4]; greater than 10 µM at Histamine H2 receptor; greater than 10 µM in test [5]. The same molecule returned an AC50 on Progesterone receptor greater than 30 µM.
Consider `Cc1cc(-c2ccccc2)nnc1NCCN1CCOCC1` [MINAPRINE], for which the AC50 in test [1] was greater than 10 µM; in test [2], greater than 30 µM; in test [3] it was greater than 30 µM; in test [4] it was greater than 10 µM; on Histamine H2 receptor, greater than 10 µM; in test [5], greater than 10 µM. Moreover, on Progesterone receptor, the AC50 was greater than 30 µM.
With `O=C(O)CCCc1ccccc1` [PHENYLBUTANOIC ACID], the AC50 in test [1] was greater than 10 µM; in test [2], greater than 30 µM; in test [3], greater than 30 µM; in test [4] it was greater than 10 µM; in test [5] it was greater than 10 µM; on Progesterone receptor, greater than 30 µM.
For the molecule `CC(Cc1ccccc1)NCCC(c1ccccc1)c1ccccc1` (stereo not drawn) [PRENYLAMINE], the AC50 in test [1] was 3.38 µM; in test [5], 0.957 µM; on Progesterone receptor it was greater than 30 µM.
As to `C1COC(NC(C2CC2)C2CC2)=N1` [RILMENIDINE], the concentration at half-maximal activity (AC50) in test [1] is greater than 10 µM; in test [4], 3.49 µM; in test [5], 20.5 µM; at Progesterone receptor, greater than 30 µM.
As to `Cc1c(C(=O)Nc2ccc(N3C[C@@H](C)O[C@@H](C)C3)nc2)cccc1-c1ccc(OC(F)(F)F)cc1` [SONIDEGIB], the AC50 in test [1] is greater than 10 µM; in test [2], greater than 30 µM; in test [3] it was greater than 30 µM; in test [4], greater than 10 µM; at Histamine H2 receptor it was greater than 10 µM; in test [5], greater than 10 µM. This molecule gave an AC50 at Progesterone receptor of 19.7 µM.
For `Cc1ccc(-c2nc3ccc(C)cn3c2CC(=O)N(C)C)cc1` [ZOLPIDEM], the AC50 in test [1] is greater than 10 µM; in test [2], greater than 30 µM; in test [3], greater than 30 µM; in test [4], greater than 10 µM; at Histamine H2 receptor, greater than 10 µM; in test [5] it was greater than 10 µM. This molecule also yielded an AC50 on Progesterone receptor greater than 30 µM.
Regarding `CN1CCN(C(=O)OC2c3nccnc3C(=O)N2c2ccc(Cl)cn2)CC1` (stereo not drawn) [ZOPICLONE], the AC50 was greater than 10 µM in test [1]; greater than 30 µM in test [2]; greater than 30 µM in test [3]; greater than 10 µM in test [4]; greater than 10 µM on Histamine H2 receptor; greater than 10 µM in test [5]. Further, the AC50 on Progesterone receptor is greater than 30 µM.
